{"source": "PubChem BioAssay AID1259407", "about": "(Chemical Carcinogenesis Research Information System (CCRIS), 2018)", "system": "CCRIS mutagenicity, Ames/micronucleus/aberration tests", "experiment": "CCRIS mutagenicity studies", "key": {"[1]": {"details": "Test System: AMES SALMONELLA TYPHIMURIUM, Strain/Indicator: TA98, Metabolic Activation: NONE, Method: PREINCUBATION"}, "[2]": {"details": "Test System: AMES SALMONELLA TYPHIMURIUM, Strain/Indicator: TA100, Metabolic Activation: NONE, Method: PREINCUBATION"}}, "note": "Activity calls are given as the source filed them. No rule for the calls is given here.", "data": [{"smiles": "c1cc2c3c(cccc3c1)CC2", "values": [{"measurement": "mutagenic call", "setting": "Test System: AMES SALMONELLA TYPHIMURIUM, Strain/Indicator: TA97, Metabolic Activation: HAMSTER, LIVER, S-9, AROCLOR 1254 (10%), Method: PREINCUBATION", "result": "inactive; negative"}, {"measurement": "mutagenic call", "setting": "Test System: AMES SALMONELLA TYPHIMURIUM, Strain/Indicator: TA97, Metabolic Activation: HAMSTER, LIVER, S-9, AROCLOR 1254 (30%), Method: PREINCUBATION", "result": "inactive; negative"}, {"measurement": "mutagenic call", "setting": "Test System: AMES SALMONELLA TYPHIMURIUM, Strain/Indicator: TA97, Metabolic Activation: NONE, Method: PREINCUBATION", "result": "inactive; negative"}, {"measurement": "mutagenic call", "setting": "Test System: AMES SALMONELLA TYPHIMURIUM, Strain/Indicator: TA97, Metabolic Activation: RAT, LIVER, S-9, AROCLOR 1254 (10%), Method: PREINCUBATION", "result": "inactive; negative"}, {"measurement": "mutagenic call", "setting": "Test System: AMES SALMONELLA TYPHIMURIUM, Strain/Indicator: TA97, Metabolic Activation: RAT, LIVER, S-9, AROCLOR 1254 (30%), Method: PREINCUBATION", "result": "inactive; negative"}, {"measurement": "mutagenic call", "setting": "Test System: AMES SALMONELLA TYPHIMURIUM, Strain/Indicator: TA98, Metabolic Activation: HAMSTER, LIVER, S-9, AROCLOR 1254 (10%), Method: PREINCUBATION", "result": "inactive; negative"}, {"measurement": "mutagenic call", "setting": "Test System: AMES SALMONELLA TYPHIMURIUM, Strain/Indicator: TA98, Metabolic Activation: HAMSTER, LIVER, S-9, AROCLOR 1254 (30%), Method: PREINCUBATION", "result": "inactive; negative"}, {"measurement": "mutagenic call", "setting": "[1]", "result": "inactive; negative"}, {"measurement": "mutagenic call", "setting": "Test System: AMES SALMONELLA TYPHIMURIUM, Strain/Indicator: TA98, Metabolic Activation: RAT, LIVER, S-9, AROCLOR 1254 (10%), Method: PREINCUBATION", "result": "inactive; negative"}, {"measurement": "mutagenic call", "setting": "Test System: AMES SALMONELLA TYPHIMURIUM, Strain/Indicator: TA98, Metabolic Activation: RAT, LIVER, S-9, AROCLOR 1254 (30%), Method: PREINCUBATION", "result": "inactive; negative"}, {"measurement": "mutagenic call", "setting": "Test System: AMES SALMONELLA TYPHIMURIUM, Strain/Indicator: TA100, Metabolic Activation: HAMSTER, LIVER, S-9, AROCLOR 1254 (10%), Method: PREINCUBATION", "result": "inactive; negative"}, {"measurement": "mutagenic call", "setting": "Test System: AMES SALMONELLA TYPHIMURIUM, Strain/Indicator: TA100, Metabolic Activation: HAMSTER, LIVER, S-9, AROCLOR 1254 (30%), Method: PREINCUBATION", "result": "inactive; negative"}, {"measurement": "mutagenic call", "setting": "[2]", "result": "inactive; negative"}, {"measurement": "mutagenic call", "setting": "Test System: AMES SALMONELLA TYPHIMURIUM, Strain/Indicator: TA100, Metabolic Activation: RAT, LIVER, S-9, AROCLOR 1254 (10%), Method: PREINCUBATION", "result": "inactive; negative"}, {"measurement": "mutagenic call", "setting": "Test System: AMES SALMONELLA TYPHIMURIUM, Strain/Indicator: TA100, Metabolic Activation: RAT, LIVER, S-9, AROCLOR 1254 (30%), Method: PREINCUBATION", "result": "inactive; negative"}, {"measurement": "mutagenic call", "setting": "Test System: AMES SALMONELLA TYPHIMURIUM, Strain/Indicator: TA1535, Metabolic Activation: HAMSTER, LIVER, S-9, AROCLOR 1254 (10%), Method: PREINCUBATION", "result": "inactive; negative"}, {"measurement": "mutagenic call", "setting": "Test System: AMES SALMONELLA TYPHIMURIUM, Strain/Indicator: TA1535, Metabolic Activation: HAMSTER, LIVER, S-9, AROCLOR 1254 (30%), Method: PREINCUBATION", "result": "inactive; negative"}, {"measurement": "mutagenic call", "setting": "Test System: AMES SALMONELLA TYPHIMURIUM, Strain/Indicator: TA1535, Metabolic Activation: NONE, Method: PREINCUBATION", "result": "inactive; negative"}, {"measurement": "mutagenic call", "setting": "Test System: AMES SALMONELLA TYPHIMURIUM, Strain/Indicator: TA1535, Metabolic Activation: RAT, LIVER, S-9, AROCLOR 1254 (10%), Method: PREINCUBATION", "result": "inactive; negative"}, {"measurement": "mutagenic call", "setting": "Test System: AMES SALMONELLA TYPHIMURIUM, Strain/Indicator: TA1535, Metabolic Activation: RAT, LIVER, S-9, AROCLOR 1254 (30%), Method: PREINCUBATION", "result": "inactive; negative"}, {"measurement": "mutagenic call", "setting": "Test System: AMES SALMONELLA TYPHIMURIUM, Strain/Indicator: TA1537, Metabolic Activation: HAMSTER, LIVER, S-9, AROCLOR 1254 (30%), Method: PREINCUBATION", "result": "inactive; negative"}, {"measurement": "mutagenic call", "setting": "Test System: AMES SALMONELLA TYPHIMURIUM, Strain/Indicator: TA1537, Metabolic Activation: NONE, Method: PREINCUBATION", "result": "inactive; negative"}, {"measurement": "mutagenic call", "setting": "Test System: AMES SALMONELLA TYPHIMURIUM, Strain/Indicator: TA1537, Metabolic Activation: RAT, LIVER, S-9, AROCLOR 1254 (30%), Method: PREINCUBATION", "result": "inactive; negative"}]}, {"smiles": "O=[N+]([O-])C(Cl)(Br)Br", "values": [{"measurement": "mutagenic call", "setting": "Test System: Ames Salmonella typhimurium, Strain/Indicator: RSJ100, Metabolic Activation: None, Method: Standard Plate", "result": "inactive; negative"}, {"measurement": "mutagenic call", "setting": "Test System: Ames Salmonella typhimurium, Strain/Indicator: RSJ100, Metabolic Activation: Rat, Liver, S-9, Aroclor, Method: Standard Plate", "result": "inactive; negative"}, {"measurement": "mutagenic call", "setting": "Test System: Ames Salmonella typhimurium, Strain/Indicator: TA98, Metabolic Activation: None, Method: Standard Plate", "result": "inactive; negative"}, {"measurement": "mutagenic call", "setting": "Test System: Ames Salmonella typhimurium, Strain/Indicator: TA98, Metabolic Activation: Rat, Liver, S-9, Aroclor, Method: Standard Plate", "result": "inactive; negative"}, {"measurement": "mutagenic call", "setting": "Test System: Ames Salmonella typhimurium, Strain/Indicator: TA100, Metabolic Activation: None, Method: Standard Plate", "result": "inactive; negative"}, {"measurement": "mutagenic call", "setting": "Test System: Ames Salmonella typhimurium, Strain/Indicator: TA100, Metabolic Activation: Rat, Liver, S-9, Aroclor, Method: Standard Plate", "result": "inactive; negative"}, {"measurement": "mutagenic call", "setting": "Test System: Ames Salmonella typhimurium, Strain/Indicator: TA104, Metabolic Activation: None, Method: Standard Plate", "result": "inactive; negative"}, {"measurement": "mutagenic call", "setting": "Test System: Ames Salmonella typhimurium, Strain/Indicator: TA104, Metabolic Activation: Rat, Liver, S-9, Aroclor, Method: Standard Plate", "result": "inactive; negative"}, {"measurement": "mutagenic call", "setting": "Test System: Ames Salmonella typhimurium, Strain/Indicator: TPT100, Metabolic Activation: None, Method: Standard Plate", "result": "inactive; negative"}]}, {"smiles": "NC[N+](=O)[O-]", "values": [{"measurement": "mutagenic call", "setting": "Test System: AMES SALMONELLA TYPHIMURIUM, Strain/Indicator: TA100, Metabolic Activation: RAT, LIVER, S-9, AROCLOR 1254, Method: PREINCUBATION", "result": "inactive; negative"}, {"measurement": "mutagenic call", "setting": "Test System: AMES SALMONELLA TYPHIMURIUM, Strain/Indicator: TA1535, Metabolic Activation: RAT, LIVER, S-9, AROCLOR 1254, Method: PREINCUBATION", "result": "inactive; negative"}]}, {"smiles": "N#CCCC(=O)CCc1ccc(C(=O)O)cc1", "values": [{"measurement": "mutagenic call", "setting": "[1]", "result": "active; positive"}, {"measurement": "mutagenic call", "setting": "Test System: AMES SALMONELLA TYPHIMURIUM, Strain/Indicator: TA98, Metabolic Activation: RAT, LIVER, S-9, PCB, Method: PREINCUBATION", "result": "inactive; negative"}, {"measurement": "mutagenic call", "setting": "[2]", "result": "inactive; negative"}, {"measurement": "mutagenic call", "setting": "Test System: AMES SALMONELLA TYPHIMURIUM, Strain/Indicator: TA100, Metabolic Activation: RAT, LIVER, S-9, PCB, Method: PREINCUBATION", "result": "inactive; negative"}]}, {"smiles": "O=CNc1ccc(Oc2c(Cl)cc(Cl)cc2Cl)cc1", "values": [{"measurement": "mutagenic call", "setting": "Test System: AMES SALMONELLA TYPHIMURIUM, Strain/Indicator: TA100, Metabolic Activation: NONE, Method: STANDARD PLATE", "result": "inactive; negative"}, {"measurement": "mutagenic call", "setting": "Test System: AMES SALMONELLA TYPHIMURIUM, Strain/Indicator: TA100, Metabolic Activation: RAT, LIVER, S-9, KANECLOR 500, Method: STANDARD PLATE", "result": "active; positive"}]}]}
